# Measurements published in patent US20030032003A1, “IN VIVO SELECTION” (priority 2000, published 2003).
# Key:
# [1] = system: hyg^R mice; experiment: Histopathological analysis of mouse tissues after Hygromycin B; format: in vivo; settings: lethal dose 803 mg/kg
# Procedure: (§1) The organs were prepared as paraffin-embedded glass slides stained with hematoxylin and eosin and evaluated as per the NTP (National Toxicology Program of NIEHS) standards. […] For liver, two cross sections, one of each of the two largest liver lobes were examined. For kidneys, an entire cross section (left longitudinal, right transverse) were evaluated. Lungs had two cross sections (one of each of the two largest lobes). The entire sections on the slides (all fields) were evaluated under blinded conditions for lesions and scored (graded) on a subjective basis compared to control animals. The grades were as follows: 1=minimal, 2=mild, 3=moderate, 4=marked, and 0=no pathological changes. The preparation and evaluation of slides used the NTP criteria and terminology (NIEHS, 1993).
# (§2) Morphological manifestations of hygromycin B tissue specific toxicity in animals treated with lethal doses was assessed by microscopic analysis. Lethal doses of hygromycin B (9 mg/kg) in wildtype animals caused nephrotoxicity typified by tubule eosinophilia, degeneration, and necrosis characterized by cytoplasmic eosinophilia associated with necrosis, loss of tubule cellular and nuclear detail or degeneration, and pyknotic nuclei and fragmentation of cells. These lesions are typical of acute tubular nephrosis. […] The hyg^R mice treated with lethal doses of hygromycin B (803 mg/kg) had liver damage characterized as hepatocellular fatty change, acute inflammation, and hepatocellular necrosis. Liver lesions in the hyg^R transgenic mice were typified by hepatocellular necrosis with nuclear pyknosis and loss of cellular detail, acute infiltration with small foci of neutrophils, and fatty change with hepatocellular intracytoplasmic large distinct clear vacuoles that displaced nuclei. These liver lesions are characteristic of acute liver damage.
# [2] = system: wildtype mice; experiment: as above; format: in vivo; settings: lethal dose 9 mg/kg
# Procedure: as §1, §2
# [3] = system: hyg^R transgenic mice C57BL/6J-TgN(pPWL512hyg)1Ems; experiment: Acute toxicity of hygromycin B, approximate lethal dose; format: in vivo, mouse; settings: for body weight, percentage of the body weight before the experiment / survival: hyg^R, 10 days
# Procedure: (§3) The animals were kept in SPF conditions, supplied with standard diet and water ad libitum. The room was held at 22° C. with humidity 70% and 12 hours dark-light cycle. Hygromycin-B was purchased from Sigma. The compound was dissolved in sterile water before application and the solution was injected i.p.
# (§4) The approximate lethal dose of hygromycin B after single i.p. injections was determined according to Deichmann and LeBlanc (1943). […] Two sets of six month old male mice (22-28 g) were used for all acute toxicity experiments. […] Total volume injected was 0.5 ml. The health status and body weights of animals were monitored daily for 10 consecutive days. The lowest dose in the dose response curve at which one mouse died was considered as the approximate lethal dose. […] The animals were checked twice a day. The maximum theoretical time the animals could be dead before necropsy was performed was 12 hrs.
# (§5) The approximate lethal dose (Deichmann and LeBlanc 1943) of hygromycin B in transgenic hyg^R bearing as well as wildtype mice was determined as a measure of the acute toxicity. […] The first dose in the increasing sequence of doses at which the mice died was considered the approximate lethal dose. The health status of animals was monitored for ten consecutive days. Hyg^R transgenic and wildtype mice tolerated a single i.p. injection of hygromycin B without immediate toxic symptoms or distress. The approximate lethal dose of hygromycin B for wildtype mice was […] (Table 1). […] Lethal doses in both hyg^R expressing transgenic and wild type strains caused the same signs of decreased activity which progressed to lethargy and death. The body weight of animals after lethal doses decreased which was less severe at shorter survival duration after hygromycin treatment (Table 1).
# [4] = system: wildtype C57BL/6J mice; experiment: as above; format: in vivo, mouse; settings: for body weight, percentage of the body weight before the experiment / survival: wildtype, 10 days
# Procedure: as §3, §4, §5
# [5] = system: hyg^R mice; experiment: Biochemical analysis of serum after hygromycin B; format: in vivo, mouse; settings: serum 48 hrs after treatment
# Procedure: (§6) Serum biochemistry parameters analyzed included blood urea nitrogen ([…]), aspartate amino transferase (AST) and alanine amino transferase (ALT). The analyses were performed at Tufts University Veterinary Medical Diagnosis Laboratory with the chemical analyzer Hitachi 747. Blood was collected from the posterior vena cava of hyg^R mice that were treated with saline, 803 mg/kg and wildtype mice administered 9 mg/kg hygromycin B i.p.
# (§7) Hyg^R mice were treated with the lethal dose of 803 mg/kg hygromycin B and wildtype mice were treated with the lethal dose of 9 mg/kg hygromycin B. As a control, hyg^R mice were also treated with the nontoxic dose of 9 mg/kg. Serum samples taken 48 hrs after treatment were evaluated for the levels of blood urea nitrogen (BUN), aspartate amino transferase (AST) and alanine amino transferase (ALT). Elevated BUN is associated with dehydration and/or renal insufficiency. Elevated activities of ALT and AST are characteristic for liver damage particularly necrosis, cirrhosis and/or hepatitis. Increased AST levels are also characteristic for muscle trauma, myocardial infarction or myositis.
# [6] = system: wildtype mice; experiment: Biochemical analysis of serum after hygromycin B; format: in vivo, mouse; settings: 9 mg/kg single i.p., serum 48 hrs after treatment
# Procedure: as §6, §7
compound,measurement,setting,value
"CN[C@H]1C[C@@H](N)[C@H](O)[C@@H](O[C@@H]2O[C@H](CO)[C@H](O)[C@@H]3OC4(O[C@H]23)O[C@H]([C@@H](N)CO)[C@H](O)[C@H](O)[C@H]4O)[C@@H]1O (stereo partly drawn) [hygromycin B, Hygromycin-B]","Kidney Tubule degeneration, lesion severity grade",[1],0
same,"Kidney Tubule eosinophilia, lesion severity grade",[1],0
same,"Kidney Tubule necrosis, lesion severity grade",[1],0
same,"Liver Acute inflamation, lesion severity grade",[1],0.8 ± 1.0
same,"Liver Fatty change, lesion severity grade",[1],0.6 ± 0.8
same,"Liver Necrosis, lesion severity grade",[1],2.2 ± 0.4
same,"Kidney Tubule degeneration, lesion severity grade",[2],2.2 ± 0.4
same,"Kidney Tubule eosinophilia, lesion severity grade",[2],1.0 ± 1.2
same,"Kidney Tubule necrosis, lesion severity grade",[2],1.2 ± 1.1
same,"Liver Acute inflamation, lesion severity grade",[2],0
same,"Liver Fatty change, lesion severity grade",[2],0
same,"Liver Necrosis, lesion severity grade",[2],0
same,approximate lethal dose,"[3]; hyg^R animals, single i.p.",535 mg/kg
same,increase of approximate lethal dose over the wildtype strain,[3]; hyg^R vs wildtype,89 fold
same,"body weight, percentage of the body weight before the experiment",[3]; 4 mg/kg single i.p.,102 ± 2%
same,survival,[3]; 4 mg/kg single i.p.,surv (surv. animals survived the 10 days period)
same,"body weight, percentage of the body weight before the experiment",[3]; 6 mg/kg single i.p.,107 ± 4%
same,survival,[3]; 6 mg/kg single i.p.,surv (surv. animals survived the 10 days period)
same,"body weight, percentage of the body weight before the experiment",[3]; 9 mg/kg single i.p.,107 ± 3%
same,survival,[3]; 9 mg/kg single i.p.,surv (surv. animals survived the 10 days period)
same,"body weight, percentage of the body weight before the experiment",[3]; 13.5 mg/kg single i.p.,101 ± 2%
same,survival,[3]; 13.5 mg/kg single i.p.,surv (surv. animals survived the 10 days period)
same,"body weight, percentage of the body weight before the experiment",[3]; 20 mg/kg single i.p.,105 ± 1%
same,survival,[3]; 20 mg/kg single i.p.,surv (surv. animals survived the 10 days period)
same,"body weight, percentage of the body weight before the experiment",[3]; 30 mg/kg single i.p.,105 ± 3%
same,survival,[3]; 30 mg/kg single i.p.,surv (surv. animals survived the 10 days period)
same,"body weight, percentage of the body weight before the experiment",[3]; 46 mg/kg single i.p.,107 ± 5%
same,survival,[3]; 46 mg/kg single i.p.,surv (surv. animals survived the 10 days period)
same,"body weight, percentage of the body weight before the experiment",[3]; 69 mg/kg single i.p.,101 ± 3%
same,survival,[3]; 69 mg/kg single i.p.,surv (surv. animals survived the 10 days period)
same,"body weight, percentage of the body weight before the experiment",[3]; 104 mg/kg single i.p.,103 ± 2%
same,survival,[3]; 104 mg/kg single i.p.,surv (surv. animals survived the 10 days period)
same,"body weight, percentage of the body weight before the experiment",[3]; 155 mg/kg single i.p.,102 ± 2%
same,survival,[3]; 155 mg/kg single i.p.,surv (surv. animals survived the 10 days period)
same,"body weight, percentage of the body weight before the experiment",[3]; 233 mg/kg single i.p.,93 ± 5%
same,survival,[3]; 233 mg/kg single i.p.,surv (surv. animals survived the 10 days period)
same,"body weight, percentage of the body weight before the experiment",[3]; 358 mg/kg single i.p.,99 ± 3%
same,survival,[3]; 358 mg/kg single i.p.,surv (surv. animals survived the 10 days period)
same,"body weight, percentage of the body weight before the experiment",[3]; 535 mg/kg single i.p.,83 ± 5%
same,survival,[3]; 535 mg/kg single i.p.,3 days
same,"body weight, percentage of the body weight before the experiment",[3]; 803 mg/kg single i.p.,89 ± 4%
same,survival,[3]; 803 mg/kg single i.p.,3.5 days
same,"body weight, percentage of the body weight before the experiment",[3]; 1205 mg/kg single i.p.,88 ± 2%
same,survival,[3]; 1205 mg/kg single i.p.,2 days
same,"body weight, percentage of the body weight before the experiment",[3]; 1809 mg/kg single i.p.,97 ± 2%
same,survival,[3]; 1809 mg/kg single i.p.,1 days
same,"body weight, percentage of the body weight before the experiment",[3]; 2709 mg/kg single i.p.,98 ± 1%
same,survival,[3]; 2709 mg/kg single i.p.,1 days
same,approximate lethal dose,"[4]; wildtype mice, single i.p.",6 mg/kg
same,"body weight, percentage of the body weight before the experiment",[4]; 2.7 mg/kg single i.p.,107 ± 3%
same,survival,[4]; 2.7 mg/kg single i.p.,surv (surv. animals survived the 10 days period)
same,"body weight, percentage of the body weight before the experiment",[4]; 4 mg/kg single i.p.,104 ± 1%
same,survival,[4]; 4 mg/kg single i.p.,surv (surv. animals survived the 10 days period)
same,"body weight, percentage of the body weight before the experiment",[4]; 6 mg/kg single i.p.,83 ± 2%
same,survival,[4]; 6 mg/kg single i.p.,3 days
same,"body weight, percentage of the body weight before the experiment",[4]; 9 mg/kg single i.p.,91 ± 4%
same,survival,[4]; 9 mg/kg single i.p.,3 days
same,"body weight, percentage of the body weight before the experiment",[4]; 13.5 mg/kg single i.p.,86 ± 6%
same,survival,[4]; 13.5 mg/kg single i.p.,3 days
same,"body weight, percentage of the body weight before the experiment",[4]; 20 mg/kg single i.p.,83 ± 2%
same,survival,[4]; 20 mg/kg single i.p.,3 days
same,"body weight, percentage of the body weight before the experiment",[4]; 30 mg/kg single i.p.,82 ± 2%
same,survival,[4]; 30 mg/kg single i.p.,3 days
same,ALT,[5]; 9 mg/kg single i.p.,28.7 ± 15.1 u/l
same,AST,[5]; 9 mg/kg single i.p.,43.0 ± 5.2 u/l
same,BUN,[5]; 9 mg/kg single i.p.,24.0 ± 4 mg/dL
same,ALT,[5]; 803 mg/kg single i.p.,108 ± 66.3 u/l
same,AST,[5]; 803 mg/kg single i.p.,102.0 ± 12.7 u/l
same,BUN,[5]; 803 mg/kg single i.p.,102 ± 55.1 mg/dL
same,ALT,[6],108 ± 61.5 u/l
same,AST,[6],135 ± 29.7 u/l
same,BUN,[6],97.7 ± 5.5 mg/dL
